Results published in patent publication US20250134903A1, “COMPOSITIONS AND METHODS FOR TREATING PAIN” (priority 2023, published 2025).
Entries after “also recorded” stand apart in the source; their conditions may differ.

Key:
[1] = cited from earlier work
[2] = test system: patients suffering from trigeminal neuralgia (TN); assay: Non-randomized clinical observations of Trimeprazine in patients (n=7) with trigeminal neuralgia; assay type: in vivo, human; conditions: for overall efficacy on TN pain: seven TN patients, non-randomized
Description: A middle-aged patient suffers from classic trigeminal (Type 1) neuralgia presenting with sharp, lancinating, severe pain in their left face precipitated by showering, eating, facial animation, touch of their facial skin and nose, and brushing their teeth. The episodes of pain are initiated by the stimuli above and immediately stop all other activity until they subside in several seconds. Their behavior is modified to avoid the stimuli above, even affecting how they speak and eats. […] Their daily activities are dominated by fear of inducing another attack.
The patient began treatment with Trimeprazine 5 mg morning and evening.
The disease had caused cutaneous anesthesia in the right forehead and cheek. […] Beginning at about 19 years after the bout of Lyme disease they noted sharp lightning-like pains in their right cheek. Brief and usually during cutaneous stimulation, like being in a shower. There were perhaps one or two of these occurrences per year. At 22 years after the initial Lyme disease, they experienced a severe attack of Trigeminal Neuralgia (TN) affecting their right cheek (Type 1). There were on average 8 bouts of severe stabbing pain per day precipitated by facial animation, touching, opening their mouth to eat, brushing their teeth, and even a gust of cold wind. They treated themself with doxycycline, fearing a reactivation of Lyme disease.
They were quite miserable, being unable to even brush their teeth without precipitating a severe bout of pain.
Patient is a person who suffers from TN which began 3 years ago after a dental procedure. The TN was manifest by sharp, lancinating pain in the left side of their jaw (Type. 1). These periods of pain were episodic, precipitated by stimuli like brushing their teeth, at least once per day, with periods of vulnerability lasting 3-4 weeks each occurring 3-4 times per year. Their parent had suffered with the same pattern of TN. When started on Trimeprazine they were also taking Pregabalin.
Patient is a young person who developed severe ophthalmic herpes zoster involving the right side of their face and their right eye. They had extensive ocular involvement requiring medications for a full year. Their corneal difficulties were accompanied by a severe lingering neuralgia in the affected ophthalmic distribution of the trigeminal nerve (Type 2), which plagued their every waking hour. They were on 12 medications including carbamazepine 200 mg BID and pregabalin 150 mg TID, ophthalmic medications, and oxycodone as needed for pain relief.
This patient suffered from shingles on their forehead which was followed by lingering neuralgia in the affected ophthalmic distribution of the trigeminal nerve.

[3] = test system: PHN; conditions: in vivo; cited from earlier work
[4] = biological target: histamine H1-receptor (Homo sapiens, UniProt P35367); conditions: more potent; cited from earlier work
[5] = test system: PHN symptoms; conditions: human, in vivo; cited from earlier work
[6] = biological target: mu-opioid receptors (Homo sapiens, UniProt P35372); conditions: cited from earlier work
[7] = test system: classic TN; conditions: 100-400 mg/d; 8 patients with classic TN; cited from earlier work
[8] = test system: TN; conditions: 23 patients; add-on therapy; cited from earlier work
[9] = test system: TN; conditions: 10 patients with TN; cited from earlier work
[10] = test system: post-herpetic neuralgia (PHN) pain; assay: Applicant's clinical observations of Trimeprazine tartrate in post-herpetic neuralgia; assay type: in vivo, human; conditions: not a randomized clinical trial
Description: While the clinical observations are not from a randomized clinical trial and could be subject to placebo effects and other confounders, they offer a promising finding for this devastating facial pain condition.

[11] = 5% lidocaine plaster applied to skin; cited from earlier work
[12] = Example 5, four months or so after

mu-opioid receptors, sequence (P35372 whole entry): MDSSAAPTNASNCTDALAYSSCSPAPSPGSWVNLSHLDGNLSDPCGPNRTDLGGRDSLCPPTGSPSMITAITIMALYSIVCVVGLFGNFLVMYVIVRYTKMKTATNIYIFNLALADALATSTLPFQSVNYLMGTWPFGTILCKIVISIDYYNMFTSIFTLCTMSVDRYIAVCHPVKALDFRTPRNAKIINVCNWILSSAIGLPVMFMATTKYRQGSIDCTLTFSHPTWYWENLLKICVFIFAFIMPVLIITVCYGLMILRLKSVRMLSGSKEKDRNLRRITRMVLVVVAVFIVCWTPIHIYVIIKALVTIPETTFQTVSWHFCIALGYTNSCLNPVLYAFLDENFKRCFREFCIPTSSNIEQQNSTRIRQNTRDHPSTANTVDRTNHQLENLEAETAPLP
histamine H1-receptor, sequence (P35367 whole entry, species assumed): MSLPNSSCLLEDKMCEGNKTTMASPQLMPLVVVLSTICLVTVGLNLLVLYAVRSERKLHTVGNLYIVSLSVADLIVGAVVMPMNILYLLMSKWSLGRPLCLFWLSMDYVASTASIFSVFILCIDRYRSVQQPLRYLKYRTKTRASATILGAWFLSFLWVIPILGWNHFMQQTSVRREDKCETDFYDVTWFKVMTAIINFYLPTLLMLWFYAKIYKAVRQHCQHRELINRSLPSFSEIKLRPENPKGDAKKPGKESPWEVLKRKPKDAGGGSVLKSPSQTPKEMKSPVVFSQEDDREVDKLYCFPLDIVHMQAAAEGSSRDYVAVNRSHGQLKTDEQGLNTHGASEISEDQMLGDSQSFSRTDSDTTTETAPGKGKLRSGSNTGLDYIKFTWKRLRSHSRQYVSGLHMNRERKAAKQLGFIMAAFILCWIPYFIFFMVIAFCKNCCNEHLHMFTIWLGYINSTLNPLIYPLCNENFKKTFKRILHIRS

CC(CN(C)C)CN1c2ccccc2Sc2ccccc21 (stereo not shown) [Trimeprazine]
LogP [1]: 4.71
pain ([2]; Example 1, TN Type 1, 5 mg morning and evening, after four days of medication): all pain was gone
intensity and frequency of the attacks ([2]; Example 1, middle-aged male, TN Type 1, 5 mg morning and evening, second day of the course): in decline
side-effects ([2]; Example 1, 5 mg): no side-effects other than drowsiness
later discomfort in face ([2]; Example 1, ½ to 1 pill of 5 mg once or twice a day): successfully alleviated
recurring sharp pains ([2]; Example 2, person, TN Type 1, recurrences at seven and eleven months after the TN attack, 5 mg twice a day): immediately stop all recurring pains
recurrent attacks of TN ([2]; Example 2, in the 12 months since the last treatment): no recurrent attacks of TN
pain ([2]; Example 3, elderly male, TN Type 1 uncontrolled with carbamazepine and gabapentin, 5 mg twice a day, by ten days after starting treatment): essentially pain free
duration of relief ([2]; Example 3, 5 mg twice a day): enduring
tolerability ([2]; Example 3, 5 mg twice a day): except for some drowsiness, tolerated the medicine well
jaw pain ([2]; Example 4, person, TN Type 1, also taking Pregabalin, after a first course of 10 days, 5 mg BID): jaw pain was gone
sensitive area on the side of head above ear ([2]; Example 4, second course 5 mg BID for several days): disappeared entirely
improvement of neuralgia ([2]; Example 5, young person, TN Type 2 after ophthalmic herpes zoster, by 5 days after starting the medication): some improvement
average pain (patient-reported) [2, 12]: 2
max pain (patient-reported) [2, 12]: 5
patient-reported relief of head pain ([2]; Example 6, TN Type 2 after shingles, 5 mg BID, by 6 days after starting): it does help my head
Clinical Outcome ([2]; Patient 1, TN Type 1): Relief, no additional
Comment ([2]; Patient 1, TN Type 1): Pain gone day 3
Clinical Outcome ([2]; Patient 2, TN Type 1): Relief, no additional
Comment ([2]; Patient 2, TN Type 1): 3 subsequent attacks
Clinical Outcome ([2]; Patient 3, TN Type 1): Relief, no additional
Comment ([2]; Patient 3, TN Type 1): “So nice to be pain
Clinical Outcome ([2]; Patient 4, TN Type 1): Relief, no additional
Comment ([2]; Patient 4, TN Type 1): Facial pain gone
Comment ([2]; Patient 5, TN Type 2): Better and continuing
Clinical Outcome ([2]; Patient 6, TN Type 2): Better, can travel
Clinical Outcome ([2]; Patient 7, TN Type 2): Better, no additional
Comment ([2]; Patient 7, TN Type 2): “No bother now”
overall efficacy on TN pain [2]: demonstrated efficacy; also recorded: significant pain relief
overall efficacy on TN pain ([2]; listed as trimeprazine): reduced or relieved
patients with long-term pain relief, no recurrence of symptoms for over 12 months ([2]; subset of TN patients treated with Trimeprazine): two out of seven

CC(C)C[C@H](CN)CC(=O)O [pregabalin]
analgesic property relative to gabapentin [3]: 6 times

Cc1ccc(/C(=C\CN2CCCC2)c2ccccn2)cc1 [E-triprolidine]
potency relative to Z-triprolidine [4]: 1000 fold

Botulinum Toxin A [BTX-A]
cases in which effective in reducing pain [5]: 31%
cases with significant outcomes [5]: 46.6%
side effects [5]: mild

CC[C@@H](c1cccc(O)c1)[C@@H](C)CN(C)C [Tapentadol]
times less potent than morphine in binding mu-opioid receptors [6]: 18 times

CC1(C)O[C@@H]2[C@@H](CO[C@@]3(COS(N)(=O)=O)OC(C)(C)O[C@@H]23)O1 [Topiramate]
patients in whom found effective [7]: 75%

CC[C@@H](C(N)=O)N1CCCC1=O [levetiracetam]
reduction in number of daily attacks [8]: 62%
improvement [9]: 50-90%

Trimeprazine tartrate
effectiveness on PHN pain [10]: effectiveness in alleviating pain
overall efficacy on TN pain [2]: effectiveness in alleviating pain

CCN(CC)CC(=O)Nc1c(C)cccc1C [Lidocaine]
fraction of the drug reaching the systemic circulation [11]: 3%
